Experimental data published in patent US5049654A, “Calcitonin gene related peptide derivatives” (Toyo Jozo Kabushiki Kaisha, priority 1986, dated 1991).
Positions of bridges follow the written chain, without caps; N, C: chain ends. Non-standard residues stand in square brackets, D forms with d. Residues, ends and D or L forms follow the SMILES beside them. Asu = N[C@@H](CCCCCC(=O)O)C(=O)O; Mpa = O=C(O)CCS

What was measured:
Wistar rats [1] = assay: Serum phosphate reducing activity, i.v. into the tail vein of Wistar rats, method of Goldenberg et al.; format: in vivo; details: rat; for reduction of serum phosphate concentration as compared with control group: vs dissolving medium group
Description: (§1) Desalanyl-deamino-c-CGRP, desalanyl-[Asu^2,7 -c-CGRP and desalanyl-[Asp^3, Asu^2,7 ]-c-CGRP (each 80 μg), and c-CGRP (Japan. Patent Unexam. Publ. No. 61-273581) and known h-CGRP (each 80 μg for control group) dissolved in citrate buffer, pH 6.5, containing 0.1% bovine serum albumin (hereinafter designated dissolving medium) (1 ml) were administered intravenously into the tail vein of Wistar rats, body weight 80-90 g, 5-6 rats in one group, at 20 or 80 μg/kg. After 30 and 60 mins. of administration, blood samples were collected from the abdominal descending aorta. The serum calcium concentration was measured by atomic adsorption spectrophotometry. Serum phosphate was measured by a method according to Goldenberg et al. [Clin. Chem., 12: 872-882 (1966)].

Wistar rats [2] = assay: Serum calcium reducing activity, i.v. into the tail vein of Wistar rats, atomic adsorption spectrophotometry; format: in vivo; details: rat; for reduction of serum calcium concentration as compared with control group: vs dissolving medium group
Description: as §1

Physical properties: pI = format: physicochemical
[3] = test peptide 80 μg/kg vs c-CGRP at equivalent dose
[4] = test peptide 80 μg/kg vs h-CGRP 80 μg/kg
[5] = test peptide 20 μg/kg vs c-CGRP 20 μg/kg
[6] = test peptide 20 μg/kg vs h-CGRP 80 μg/kg

CC(C)C[C@H](NC(=O)[C@H](CCCNC(=N)N)NC(=O)[C@H](Cc1c[nH]cn1)NC(=O)[C@@H](NC(=O)[C@@H](NC(=O)[C@@H]1CCCCCC(=O)N[C@@H](CC(N)=O)C(=O)N[C@@H]([C@@H](C)O)C(=O)N[C@@H](C)C(=O)N[C@@H]([C@@H](C)O)C(=O)N1)C(C)C)[C@@H](C)O)C(=O)N[C@@H](C)C(=O)N[C@@H](CC(=O)O)C(=O)N[C@@H](Cc1ccccc1)C(=O)N[C@@H](CC(C)C)C(=O)N[C@@H](CO)C(=O)N[C@@H](CCCNC(=N)N)C(=O)N[C@@H](CO)C(=O)NCC(=O)NCC(=O)N[C@H](C(=O)NCC(=O)N[C@@H](CCCCN)C(=O)N[C@@H](CC(N)=O)C(=O)N[C@@H](CC(N)=O)C(=O)N[C@@H](Cc1ccccc1)C(=O)N[C@H](C(=O)N1CCC[C@H]1C(=O)N[C@H](C(=O)N[C@@H](CC(N)=O)C(=O)N[C@H](C(=O)NCC(=O)N[C@@H](CO)C(=O)N[C@@H](CCCCN)C(=O)N[C@@H](C)C(=O)N[C@@H](Cc1ccccc1)C(N)=O)C(C)C)[C@@H](C)O)C(C)C)C(C)C [desalanyl-[Asu^2,7]-c-CGRP] (NTAT[Asu]VTHRLADFLSRSGGVGKNNFVPTNVGSKAF-NH2; lactam N-5)
duration of serum phosphate reducing activity (Wistar rats [1]; 80 μg/kg i.v.): more than 2 hours
reduction of serum phosphate concentration as compared with control group (Wistar rats [1]; 80 μg/kg i.v., FIGS. 2 and 4): more than 30%
serum phosphate reducing activity compared with c-CGRP (Wistar rats [1]; [3]): significantly strong as compared with c-CGRP
serum phosphate reducing activity compared with h-CGRP (Wistar rats [1]; [4]): stronger than that of h-CGRP
duration of serum calcium reducing activity (Wistar rats [2]; 80 μg/kg i.v.): more than 2 hours
reduction of serum calcium concentration as compared with control group (Wistar rats [2]; 80 μg/kg i.v., FIGS. 1 and 3): more than 30%
serum calcium reducing activity compared with c-CGRP (Wistar rats [2]; [3]): significantly strong as compared with c-CGRP
serum calcium reducing activity compared with h-CGRP (Wistar rats [2]; [4]): stronger than that of h-CGRP
pI (Physical properties: pI): more than 10.25

CC(C)C[C@H](NC(=O)[C@H](CCCNC(=N)N)NC(=O)[C@H](Cc1c[nH]cn1)NC(=O)[C@@H](NC(=O)[C@@H](NC(=O)[C@@H]1CSSCCC(=O)N[C@@H](CC(N)=O)C(=O)N[C@@H]([C@@H](C)O)C(=O)N[C@@H](C)C(=O)N[C@@H]([C@@H](C)O)C(=O)N1)C(C)C)[C@@H](C)O)C(=O)N[C@@H](C)C(=O)N[C@@H](CC(=O)O)C(=O)N[C@@H](Cc1ccccc1)C(=O)N[C@@H](CC(C)C)C(=O)N[C@@H](CO)C(=O)N[C@@H](CCCNC(=N)N)C(=O)N[C@@H](CO)C(=O)NCC(=O)NCC(=O)N[C@H](C(=O)NCC(=O)N[C@@H](CCCCN)C(=O)N[C@@H](CC(N)=O)C(=O)N[C@@H](CC(N)=O)C(=O)N[C@@H](Cc1ccccc1)C(=O)N[C@H](C(=O)N1CCC[C@H]1C(=O)N[C@H](C(=O)N[C@@H](CC(N)=O)C(=O)N[C@H](C(=O)NCC(=O)N[C@@H](CO)C(=O)N[C@@H](CCCCN)C(=O)N[C@@H](C)C(=O)N[C@@H](Cc1ccccc1)C(N)=O)C(C)C)[C@@H](C)O)C(C)C)C(C)C [desalanyl-deamino-c-CGRP] ([Mpa]NTATCVTHRLADFLSRSGGVGKNNFVPTNVGSKAF-NH2; disulfide 1-6)
duration of serum phosphate reducing activity (Wistar rats [1]; 20 μg/kg i.v.): ≥ 2 h
reduction of serum phosphate concentration as compared with control group (Wistar rats [1]; 20 μg/kg i.v., FIG. 2): more than 30%
duration of serum phosphate reducing activity (Wistar rats [1]; 80 μg/kg i.v.): ≥ 2 h
reduction of serum phosphate concentration as compared with control group (Wistar rats [1]; 80 μg/kg i.v., FIGS. 2 and 4): more than 30%
serum phosphate reducing activity compared with c-CGRP (Wistar rats [1]; [5]): significantly strong as compared with c-CGRP
serum phosphate reducing activity compared with h-CGRP (Wistar rats [1]; [6]): stronger than those of h-CGRP administered in quadruple the amounts
serum phosphate reducing activity compared with c-CGRP (Wistar rats [1]; [3]): stronger
serum phosphate reducing activity compared with h-CGRP (Wistar rats [1]; [4]): stronger than those of h-CGRP
duration of serum calcium reducing activity (Wistar rats [2]; 20 μg/kg i.v.): ≥ 2 h
reduction of serum calcium concentration as compared with control group (Wistar rats [2]; 20 μg/kg i.v., FIG. 1): more than 30%
duration of serum calcium reducing activity (Wistar rats [2]; 80 μg/kg i.v.): ≥ 2 h
reduction of serum calcium concentration as compared with control group (Wistar rats [2]; 80 μg/kg i.v., FIGS. 1 and 3): more than 30%
serum calcium reducing activity compared with c-CGRP (Wistar rats [2]; [5]): significantly strong as compared with c-CGRP
serum calcium reducing activity compared with h-CGRP (Wistar rats [2]; [6]): stronger than those of h-CGRP administered in quadruple the amounts
serum calcium reducing activity compared with c-CGRP (Wistar rats [2]; [3]): stronger
serum calcium reducing activity compared with h-CGRP (Wistar rats [2]; [4]): stronger than those of h-CGRP
pI (Physical properties: pI): more than 10.25

CC(C)C[C@H](NC(=O)[C@H](CCCNC(=N)N)NC(=O)[C@H](Cc1c[nH]cn1)NC(=O)[C@@H](NC(=O)[C@@H](NC(=O)[C@@H]1CCCCCC(=O)N[C@@H](CC(=O)O)C(=O)N[C@@H]([C@@H](C)O)C(=O)N[C@@H](C)C(=O)N[C@@H]([C@@H](C)O)C(=O)N1)C(C)C)[C@@H](C)O)C(=O)N[C@@H](C)C(=O)N[C@@H](CC(=O)O)C(=O)N[C@@H](Cc1ccccc1)C(=O)N[C@@H](CC(C)C)C(=O)N[C@@H](CO)C(=O)N[C@@H](CCCNC(=N)N)C(=O)N[C@@H](CO)C(=O)NCC(=O)NCC(=O)N[C@H](C(=O)NCC(=O)N[C@@H](CCCCN)C(=O)N[C@@H](CC(N)=O)C(=O)N[C@@H](CC(N)=O)C(=O)N[C@@H](Cc1ccccc1)C(=O)N[C@H](C(=O)N1CCC[C@H]1C(=O)N[C@H](C(=O)N[C@@H](CC(N)=O)C(=O)N[C@H](C(=O)NCC(=O)N[C@@H](CO)C(=O)N[C@@H](CCCCN)C(=O)N[C@@H](C)C(=O)N[C@@H](Cc1ccccc1)C(N)=O)C(C)C)[C@@H](C)O)C(C)C)C(C)C [desalanyl-[Asp^3,Asu^2,7]-c-CGRP] (DTAT[Asu]VTHRLADFLSRSGGVGKNNFVPTNVGSKAF-NH2; lactam N-5)
duration of serum phosphate reducing activity (Wistar rats [1]; 80 μg/kg i.v.): more than 2 hours
reduction of serum phosphate concentration as compared with control group (Wistar rats [1]; 80 μg/kg i.v., FIGS. 2 and 4): more than 30%
serum phosphate reducing activity compared with c-CGRP (Wistar rats [1]; [3]): significantly strong as compared with c-CGRP
serum phosphate reducing activity compared with h-CGRP (Wistar rats [1]; [4]): stronger than that of h-CGRP
duration of serum calcium reducing activity (Wistar rats [2]; 80 μg/kg i.v.): more than 2 hours
reduction of serum calcium concentration as compared with control group (Wistar rats [2]; 80 μg/kg i.v., FIGS. 1 and 3): more than 30%
serum calcium reducing activity compared with c-CGRP (Wistar rats [2]; [3]): significantly strong as compared with c-CGRP
serum calcium reducing activity compared with h-CGRP (Wistar rats [2]; [4]): stronger than that of h-CGRP
pI (Physical properties: pI): more than 10.25
